Test results as given in ChEMBL document CHEMBL4229379, “Synthesis and structure-activity relationship of novel bisindole amidines active against MDR Gram-positive and Gram-negative bacteria” (Eur J Med Chem, 2018).
≈ marks a conversion by molar mass, not a printed value.

What was measured:
[1] = test system: Staphylococcus epidermidis; assay: Antibacterial activity against methicillin-sensitive Staphylococcus epidermidis ATCC 12228 after 18 hrs by CLSI broth microdilution method; type: functional; conditions: ATCC 12228, 18 h
[2] = test system: Staphylococcus epidermidis; assay: Antibacterial activity against methicillin-resistant Staphylococcus epidermidis 12-8 after 18 hrs by CLSI broth microdilution method; type: functional; conditions: 12-8, 18 h
[3] = test system: Staphylococcus aureus; assay: Antibacterial activity against methicillin-sensitive Staphylococcus aureus ATCC 29213 after 18 hrs by CLSI broth microdilution method; type: functional; conditions: ATCC 29213, 18 h
[4] = test system: Staphylococcus aureus; assay: Antibacterial activity against methicillin-resistant Staphylococcus aureus 12-33 after 18 hrs by CLSI broth microdilution method; type: functional; conditions: 12-33, 18 h
[5] = test system: Enterococcus faecalis; assay: Antibacterial activity against vancomycin-sensitive Enterococcus faecalis ATCC 29212 after 18 hrs by CLSI broth microdilution method; type: functional; conditions: ATCC 29212, 18 h
[6] = test system: Enterococcus faecalis; assay: Antibacterial activity against vancomycin-resistant Enterococcus faecalis 09-9 after 18 hrs by CLSI broth microdilution method; type: functional; conditions: 09-9, 18 h
[7] = test system: Enterococcus faecium; assay: Antibacterial activity against vancomycin-sensitive Enterococcus faecium 12-3 after 18 hrs by CLSI broth microdilution method; type: functional; conditions: 12-3, 18 h
[8] = test system: Escherichia coli; assay: Antibacterial activity against extended-spectrum beta-lactamase deficient Escherichia coli ATCC 25922 after 18 hrs by CLSI broth microdilution method; type: functional; conditions: ATCC 25922, 18 h
[9] = test system: Escherichia coli; assay: Antibacterial activity against extended-spectrum beta-lactamase harboring Escherichia coli 12-15 after 18 hrs by CLSI broth microdilution method; type: functional; conditions: 12-15, 18 h
[10] = test system: Klebsiella pneumoniae; assay: Antibacterial activity against extended-spectrum beta-lactamase harboring Klebsiella pneumoniae ATCC 700603 after 18 hrs by CLSI broth microdilution method; type: functional; conditions: Klebsiella pneumoniae, 700603, 18 h
[11] = test system: Klebsiella pneumoniae; assay: Antibacterial activity against new delhi metallo-beta-lactamase-1 harboring Klebsiella pneumoniae ATCC BAA-2146 after 18 hrs by CLSI broth microdilution method; type: functional; conditions: ATCC BAA-2146, 18 h
[12] = test system: Pseudomonas aeruginosa; assay: Antibacterial activity against Pseudomonas aeruginosa ATCC 27853 after 18 hrs by CLSI broth microdilution method; type: functional; conditions: ATCC 27853, 18 h
[13] = test system: Enterobacter cloacae; assay: Antibacterial activity against Enterobacter cloacae ATCC 43560 after 18 hrs by CLSI broth microdilution method; type: functional; conditions: ATCC 43560, 18 h
[14] = Cytotoxicity against HEK293T cells assessed as reduction in cell viability after 48 hrs by MTS assay; type: cell-based, HEK-293T; conditions: human
[15] = test system: Escherichia coli; assay: Antibacterial activity against extended-spectrum beta-lactamase harboring Escherichia coli 13-1 after 18 hrs by CLSI broth microdilution method; type: functional; conditions: 13-1, 18 h
[16] = test system: Escherichia coli; assay: Antibacterial activity against extended-spectrum beta-lactamase harboring Escherichia coli CDC1001728 after 18 hrs by CLSI broth microdilution method; type: functional; conditions: CDC1001728, 18 h
[17] = test system: Klebsiella pneumoniae; assay: Antibacterial activity against carbapenem-resistant Klebsiella pneumoniae 12-11 after 18 hrs by CLSI broth microdilution method; type: functional; conditions: 12-11, 18 h
[18] = test system: Klebsiella pneumoniae; assay: Antibacterial activity against carbapenem-resistant Klebsiella pneumoniae 12-12 after 18 hrs by CLSI broth microdilution method; type: functional; conditions: 12-12, 18 h
[19] = test system: Acinetobacter calcoaceticus; assay: Antibacterial activity against new delhi metallo-beta-lactamase-1 harboring Acinetobacter calcoaceticus 13-1 after 18 hrs by CLSI broth microdilution method; type: functional; conditions: 13-1, 18 h
[20] = test system: Acinetobacter calcoaceticus; assay: Antibacterial activity against carbapenem-resistant Acinetobacter calcoaceticus 12-6 after 18 hrs by CLSI broth microdilution method; type: functional; conditions: 12-6, 18 h
[21] = test system: Enterobacter cloacae; assay: Antibacterial activity against new delhi metallo-beta-lactamase-1 harboring Enterobacter cloacae 13-1 after 18 hrs by CLSI broth microdilution method; type: functional; conditions: 13-1, 18 h
[22] = test system: Staphylococcus epidermidis; assay: Antibacterial activity against methicillin-sensitive Staphylococcus epidermidis 12-6 after 18 hrs by CLSI broth microdilution method; type: functional; conditions: 12-6, 18 h
[23] = test system: Staphylococcus aureus; assay: Antibacterial activity against methicillin-resistant Staphylococcus aureus ATCC 33591 after 18 hrs by CLSI broth microdilution method; type: functional; conditions: ATCC 33591, 18 h
[24] = test system: Staphylococcus aureus; assay: Antibacterial activity against methicillin-sensitive Staphylococcus aureus 12-28 after 18 hrs by CLSI broth microdilution method; type: functional; conditions: 12-28, 18 h
[25] = test system: Enterococcus faecalis; assay: Antibacterial activity against vancomycin-resistant Enterococcus faecalis ATCC 51299 after 18 hrs by CLSI broth microdilution method; type: functional; conditions: ATCC 51299, 18 h
[26] = test system: Enterococcus faecalis; assay: Antibacterial activity against vancomycin-sensitive Enterococcus faecalis 12-5 after 18 hrs by CLSI broth microdilution method; type: functional; conditions: 12-5, 18 h
[27] = test system: Enterococcus faecium; assay: Antibacterial activity against vancomycin-resistant Enterococcus faecium 12-1 after 18 hrs by CLSI broth microdilution method; type: functional; conditions: 12-1, 18 h
[28] = test system: Escherichia coli; assay: Antibacterial activity against extended-spectrum beta-lactamase deficient Escherichia coli 1515 after 18 hrs by CLSI broth microdilution method; type: functional; conditions: Escherichia coli, 1515, 18 h
[29] = test system: Klebsiella pneumoniae; assay: Antibacterial activity against extended-spectrum beta-lactamase deficient Klebsiella pneumoniae 7 after 18 hrs by CLSI broth microdilution method; type: functional; conditions: Klebsiella pneumoniae, 7, 18 h
[30] = test system: Klebsiella pneumoniae; assay: Antibacterial activity against extended-spectrum beta-lactamase deficient Klebsiella pneumoniae 12-4 after 18 hrs by CLSI broth microdilution method; type: functional; conditions: 12-4, 18 h
[31] = test system: Pseudomonas aeruginosa; assay: Antibacterial activity against Pseudomonas aeruginosa PAO1 after 18 hrs by CLSI broth microdilution method; type: functional; conditions: PAO1, 18 h
[32] = test system: Pseudomonas aeruginosa; assay: Antibacterial activity against Pseudomonas aeruginosa 12-16 after 18 hrs by CLSI broth microdilution method; type: functional; conditions: 12-16, 18 h
[33] = test system: Klebsiella aerogenes; assay: Antibacterial activity against Enterobacter aerogenes ATCC 13048 after 18 hrs by CLSI broth microdilution method; type: functional; conditions: ATCC 13048, 18 h
[34] = test system: Serratia marcescens; assay: Antibacterial activity against Serratia marcescens ATCC 21074 after 18 hrs by CLSI broth microdilution method; type: functional; conditions: ATCC 21074, 18 h
[35] = test system: Providencia rettgeri; assay: Antibacterial activity against Providencia rettgeri ATCC 31052 after 18 hrs by CLSI broth microdilution method; type: functional; conditions: ATCC 31052, 18 h
[36] = test system: Proteus vulgaris; assay: Antibacterial activity against Proteus vulgaris ATCC 29905 after 18 hrs by CLSI broth microdilution method; type: functional; conditions: ATCC 29905, 18 h
[37] = test system: Citrobacter freundii; assay: Antibacterial activity against Citrobacter freundii ATCC 43864 after 18 hrs by CLSI broth microdilution method; type: functional; conditions: ATCC 43864, 18 h
[38] = test system: Staphylococcus aureus; assay: Antibacterial activity against methicillin-resistant Staphylococcus aureus ATCC 33591 infected in ICR mouse assessed as mouse survival at 2 mg/kg, iv administered at 1 and 5 hrs post infection and measured on day 7 day post last dose (reference value: 0%); type: functional; conditions: ATCC 33591, iv
[39] = test system: Staphylococcus aureus; assay: Antibacterial activity against methicillin-resistant Staphylococcus aureus ATCC 33591 infected in ICR mouse assessed as mouse survival at 4 mg/kg, iv administered at 1 and 5 hrs post infection and measured on day 7 day post last dose (reference value: 0%); type: functional; conditions: ATCC 33591, iv
[40] = test system: Staphylococcus aureus; assay: Antibacterial activity against methicillin-resistant Staphylococcus aureus ATCC 33591 infected in ICR mouse assessed as mouse survival administered intravenously at 1 and 5 hrs post infection and measured on day 7 day post last dose (reference value: 0%); type: functional; conditions: ATCC 33591, iv

## CN(C)C(=N)c1ccc2cc(-c3ccc(-c4cc5ccc(C(=N)N(C)C)cc5[nH]4)cc3)[nH]c2c1
[1]
  MIC: 0.125 µg/mL (≈ 0.279 µM)
[2]
  MIC: 0.25 µg/mL (≈ 0.557 µM)
[3]
  MIC: 0.25 µg/mL (≈ 0.557 µM)
[4]
  MIC: 0.25 µg/mL (≈ 0.557 µM)
[5]
  MIC: 1 µg/mL (≈ 2.23 µM)
[6]
  MIC: 1 µg/mL (≈ 2.23 µM)
[7]
  MIC: 1 µg/mL (≈ 2.23 µM)
[8]
  MIC: 1 µg/mL (≈ 2.23 µM)
[9]
  MIC: 2 µg/mL (≈ 4.46 µM)
[10]
  MIC: 4 µg/mL (≈ 8.92 µM)
[11]
  MIC: 2 µg/mL (≈ 4.46 µM)
[12]
  MIC: 4 µg/mL (≈ 8.92 µM)
[13]
  MIC: 1 µg/mL (≈ 2.23 µM)
[14]
  CC50 at 48 h: 4.13 µg/mL (≈ 9.21 µM)
[15]
  MIC: 2 µg/mL (≈ 4.46 µM)
[16]
  MIC: 2 µg/mL (≈ 4.46 µM)
[17]
  MIC: 8 µg/mL (≈ 17.8 µM)
[18]
  MIC: 16 µg/mL (≈ 35.7 µM)
[19]
  MIC: 4 µg/mL (≈ 8.92 µM)
[20]
  MIC: 8 µg/mL (≈ 17.8 µM)
[21]
  MIC: 4 µg/mL (≈ 8.92 µM)
[22]
  MIC: 0.125 µg/mL (≈ 0.279 µM)
[23]
  MIC: 0.25 µg/mL (≈ 0.557 µM)
[24]
  MIC: 0.25 µg/mL (≈ 0.557 µM)
[25]
  MIC: 1 µg/mL (≈ 2.23 µM)
[26]
  MIC: 2 µg/mL (≈ 4.46 µM)
[27]
  MIC: 0.5 µg/mL (≈ 1.11 µM)
[28]
  MIC: 1 µg/mL (≈ 2.23 µM)
[29]
  MIC: 2 µg/mL (≈ 4.46 µM)
[30]
  MIC: 4 µg/mL (≈ 8.92 µM)
[31]
  MIC: 64 µg/mL (≈ 143 µM)
[32]
  MIC: 64 µg/mL (≈ 143 µM)
[33]
  MIC: 2 µg/mL (≈ 4.46 µM)
[34]
  MIC: 16 µg/mL (≈ 35.7 µM)
[35]
  MIC: 2 µg/mL (≈ 4.46 µM)
[36]
  MIC: 4 µg/mL (≈ 8.92 µM)
[37]
  MIC: 2 µg/mL (≈ 4.46 µM)
[38]
  survival at 2 mg/kg: 20%
[39]
  survival at 4 mg/kg: 90%
[40]
  ED50: 2.62 mg/kg
  ED95: 4.62 mg/kg
